From PubChem BioAssay (NCI)
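Compound exposure: 48 hours, 5 concentrations, 96-well plates. GI50: concentration for 50% inhibition of growth. TGI is the concentration that stops growth completely.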

Experiments:
Assay in all cases: growth of human tumour cells (NCI), 48 h
HCC-2998 colon = tested on: HCC-2998 colon
SK-OV-3 ovarian = tested on: SK-OV-3 ovarian
HT29 colon = tested on: HT29 colon
SN12C renal = tested on: SN12C renal
NCI-H460 lung = tested on: NCI-H460 lung
KM12 colon = tested on: KM12 colon
UACC-257 melanoma = tested on: UACC-257 melanoma
OVCAR-3 ovarian = tested on: OVCAR-3 ovarian
CCRF-CEM leukemia = tested on: CCRF-CEM leukemia
HOP-92 NSCLC = tested on: HOP-92 NSCLC
PC-3 prostate = tested on: PC-3 prostate
TK-10 renal = tested on: TK-10 renal
A498 renal = tested on: A498 renal
T-47D breast = tested on: T-47D breast
HCT-15 colon = tested on: HCT-15 colon
HS 578T breast = tested on: HS 578T breast
SF-295 CNS = tested on: SF-295 CNS
NCI-H23 lung = tested on: NCI-H23 lung
M14 melanoma = tested on: M14 melanoma
EKVX NSCLC = tested on: EKVX NSCLC
NCI-H522 lung = tested on: NCI-H522 lung
SK-MEL-2 melanoma = tested on: SK-MEL-2 melanoma
RPMI-8226 leukemia = tested on: RPMI-8226 leukemia
HCT-116 colon = tested on: HCT-116 colon
SF-539 CNS = tested on: SF-539 CNS
MDA-MB-435 = tested on: MDA-MB-435
SK-MEL-28 melanoma = tested on: SK-MEL-28 melanoma
SNB-19 CNS = tested on: SNB-19 CNS
MDA-MB-231 breast = tested on: MDA-MB-231 breast
UACC-62 melanoma = tested on: UACC-62 melanoma
NCI/ADR-RES ovarian = tested on: NCI/ADR-RES ovarian
SW-620 colon = tested on: SW-620 colon
BT-549 breast = tested on: BT-549 breast
CAKI-1 renal = tested on: CAKI-1 renal
OVCAR-5 ovarian = tested on: OVCAR-5 ovarian
NCI-H226 lung = tested on: NCI-H226 lung
COLO 205 colon = tested on: COLO 205 colon
MALME-3M melanoma = tested on: MALME-3M melanoma
RXF 393 renal = tested on: RXF 393 renal
UO-31 renal = tested on: UO-31 renal
OVCAR-4 ovarian = tested on: OVCAR-4 ovarian
U251 CNS = tested on: U251 CNS
MCF7 breast = tested on: MCF7 breast
HL-60(TB) leukemia = tested on: HL-60(TB) leukemia
HOP-62 NSCLC = tested on: HOP-62 NSCLC
IGROV1 ovarian = tested on: IGROV1 ovarian
786-0 renal = tested on: 786-0 renal
SK-MEL-5 melanoma = tested on: SK-MEL-5 melanoma
DU-145 prostate = tested on: DU-145 prostate
SNB-75 CNS = tested on: SNB-75 CNS
ACHN renal = tested on: ACHN renal
A549 NSCLC = tested on: A549 NSCLC
SF-268 CNS = tested on: SF-268 CNS
OVCAR-8 ovarian = tested on: OVCAR-8 ovarian
MOLT-4 leukemia = tested on: MOLT-4 leukemia
SR leukemia = tested on: SR leukemia
LOX IMVI melanoma = tested on: LOX IMVI melanoma
K-562 leukemia = tested on: K-562 leukemia

CNCCN(C)c1ccc(Nc2cc(NC3CC3)n3ncc(C#N)c3n2)cc1NC(C)=O
GI50 (HCC-2998 colon): 17.5 nM | TGI (HCC-2998 colon): 16400 nM | GI50 (SK-OV-3 ovarian): 35.7 nM | TGI (SK-OV-3 ovarian): 668 nM | GI50 (HT29 colon): < 10 nM | TGI (HT29 colon): > 100000 nM | GI50 (SN12C renal): 75.2 nM | TGI (SN12C renal): > 64200 nM | GI50 (NCI-H460 lung): < 10 nM | TGI (NCI-H460 lung): 12400 nM | GI50 (KM12 colon): 25.9 nM | TGI (KM12 colon): > 80100 nM | GI50 (UACC-257 melanoma): 16.3 nM | TGI (UACC-257 melanoma): 10700 nM | GI50 (OVCAR-3 ovarian): < 10 nM | TGI (OVCAR-3 ovarian): 869 nM | GI50 (CCRF-CEM leukemia): < 10 nM | TGI (CCRF-CEM leukemia): 6000 nM | GI50 (HOP-92 NSCLC): < 10 nM | TGI (HOP-92 NSCLC): 46.6 nM | GI50 (PC-3 prostate): < 10 nM | TGI (PC-3 prostate): 13200 nM | GI50 (TK-10 renal): < 10 nM | TGI (TK-10 renal): 45.3 nM | GI50 (A498 renal): < 11.7 nM | TGI (A498 renal): < 26 nM | GI50 (T-47D breast): < 10 nM | TGI (T-47D breast): 1340 nM | GI50 (HCT-15 colon): 290 nM | TGI (HCT-15 colon): > 100000 nM | GI50 (HS 578T breast): < 10 nM | TGI (HS 578T breast): 117 nM | GI50 (SF-295 CNS): 27.7 nM | TGI (SF-295 CNS): 12500 nM | GI50 (NCI-H23 lung): < 10 nM | TGI (NCI-H23 lung): 237 nM | GI50 (M14 melanoma): < 11.8 nM | TGI (M14 melanoma): 452 nM | GI50 (EKVX NSCLC): < 13 nM | TGI (EKVX NSCLC): 4040 nM | GI50 (NCI-H522 lung): < 10 nM | TGI (NCI-H522 lung): 1130 nM | GI50 (SK-MEL-2 melanoma): 20.2 nM | TGI (SK-MEL-2 melanoma): 445 nM | GI50 (RPMI-8226 leukemia): < 10 nM | TGI (RPMI-8226 leukemia): 2640 nM | GI50 (HCT-116 colon): < 10 nM | TGI (HCT-116 colon): 195 nM | GI50 (SF-539 CNS): 14 nM | TGI (SF-539 CNS): 2360 nM | GI50 (MDA-MB-435): 16.1 nM | TGI (MDA-MB-435): > 41100 nM | GI50 (SK-MEL-28 melanoma): 39.3 nM | TGI (SK-MEL-28 melanoma): 18600 nM | GI50 (SNB-19 CNS): < 10 nM | TGI (SNB-19 CNS): > 100000 nM | GI50 (MDA-MB-231 breast): < 10 nM | TGI (MDA-MB-231 breast): 2170 nM | GI50 (UACC-62 melanoma): 19.5 nM | TGI (UACC-62 melanoma): 149 nM | GI50 (NCI/ADR-RES ovarian): 3360 nM | TGI (NCI/ADR-RES ovarian): > 100000 nM | GI50 (SW-620 colon): < 10 nM | TGI (SW-620 colon): 209 nM | GI50 (BT-549 breast): < 14 nM | TGI (BT-549 breast): 165 nM | GI50 (CAKI-1 renal): 12.3 nM | TGI (CAKI-1 renal): 153 nM | GI50 (OVCAR-5 ovarian): < 10 nM | TGI (OVCAR-5 ovarian): > 28500 nM | GI50 (NCI-H226 lung): < 10 nM | TGI (NCI-H226 lung): 1230 nM | GI50 (COLO 205 colon): < 10 nM | TGI (COLO 205 colon): 2330 nM | GI50 (MALME-3M melanoma): 16.6 nM | TGI (MALME-3M melanoma): 3180 nM | GI50 (RXF 393 renal): 10 nM | TGI (RXF 393 renal): 34.2 nM | GI50 (UO-31 renal): 143 nM | TGI (UO-31 renal): 3790 nM | GI50 (OVCAR-4 ovarian): < 10 nM | TGI (OVCAR-4 ovarian): > 39200 nM | GI50 (U251 CNS): < 10 nM | TGI (U251 CNS): > 100000 nM | GI50 (MCF7 breast): < 10 nM | TGI (MCF7 breast): 1590 nM | GI50 (HL-60(TB) leukemia): < 10 nM | TGI (HL-60(TB) leukemia): 498 nM | GI50 (HOP-62 NSCLC): 27.5 nM | TGI (HOP-62 NSCLC): > 54400 nM | GI50 (IGROV1 ovarian): < 10.7 nM | TGI (IGROV1 ovarian): 961 nM | GI50 (786-0 renal): 43.6 nM | TGI (786-0 renal): 13500 nM | GI50 (SK-MEL-5 melanoma): < 10 nM | TGI (SK-MEL-5 melanoma): 462 nM | GI50 (DU-145 prostate): 45.2 nM | TGI (DU-145 prostate): > 100000 nM | GI50 (SNB-75 CNS): < 10 nM | TGI (SNB-75 CNS): 51.9 nM | GI50 (ACHN renal): 73 nM | TGI (ACHN renal): 15400 nM | GI50 (A549 NSCLC): 18.8 nM | TGI (A549 NSCLC): 12500 nM | GI50 (SF-268 CNS): 18.2 nM | TGI (SF-268 CNS): 16400 nM | GI50 (OVCAR-8 ovarian): 59.2 nM | TGI (OVCAR-8 ovarian): > 100000 nM | GI50 (MOLT-4 leukemia): 18.6 nM | GI50 (SR leukemia): < 10 nM | TGI (SR leukemia): 5730 nM | GI50 (LOX IMVI melanoma): 20.4 nM | TGI (LOX IMVI melanoma): 390 nM | GI50 (K-562 leukemia): < 13.8 nM | TGI (K-562 leukemia): > 40100 nM
